From ChEMBL document CHEMBL1614632, “Trend analysis of a database of intravenous pharmacokinetic parameters in humans for 670 drug compounds” (Drug Metab Dispos, 2008)

How the values were obtained:
clinical [1] = details: human, in vivo, iv
clinical [2] = details: human, in vivo, iv, t1/2
clinical [3] = details: human, in vivo, iv, CL
clinical [4] = details: human, in vivo, iv, Vdss
clinical [5] = details: human, in vivo, iv; remark: listed apart in the source

Row | Compound | MRT (clinical [1]) [h] | half-life (clinical [2]) [h] | clearance (clinical [3]) [L/h/kg] | Vd (clinical [4]) [L/kg] | fraction unbound (clinical [5])
1 | Fc1ccc([C@@H]2CCNC[C@H]2COc2ccc3c(c2)OCO3)cc1 [PAROXETINE] | 17 | 13 | 1.08 | 18 | 0.06
2 | C[C@@H](O)[C@H]1C(=O)N2C(C(=O)O)=C(S[C@@H]3CN[C@H](C(=O)Nc4cccc(C(=O)O)c4)C3)[C@H](C)[C@H]12 | 4.4 | 3.8 | 0.027 | 0.12 | 0.1
3 | CCN[C@@H]1C[C@H](N)[C@@H](O[C@H]2OC(CN)=CC[C@H]2N)[C@H](O)[C@H]1O[C@H]1OC[C@](C)(O)[C@H](NC)[C@H]1O [NETILMICIN] | 2.2 | 3.2 | 0.033 | 0.073 | 1
4 | CC(C)=CCN1CC[C@]2(C)c3cc(O)ccc3C[C@H]1[C@H]2C [(+)-PENTAZOCINE] | 2.5 |  | 1.38 | 3.4 | 0.39
5 | COc1ccc(C[C@@H]2c3cc(OC)c(OC)cc3CC[N@+]2(C)CCC(=O)OCCCCCOC(=O)CC[N@@+]2(C)CCc3cc(OC)c(OC)cc3[C@H]2Cc2ccc(OC)c(OC)c2)cc1OC | 0.43 | 0.42 | 0.324 | 0.14 | 0.62
6 | NC(=O)c1ncn([C@@H]2O[C@H](CO)[C@@H](O)[C@H]2O)n1 [RIBAVIRIN] | 45 | 45 | 0.312 |  | 1
7 | [H]/N=C(/N)N[C@H]1[C@H](O)[C@@H](O)[C@H](O[C@@H]2O[C@@H](C)[C@](O)(C=O)[C@H]2O[C@@H]2O[C@@H](CO)[C@H](O)[C@@H](O)[C@@H]2NC)[C@@H](N/C(N)=N\[H])[C@@H]1O [STREPTOMYCIN] | 7.3 | 4.3 | 0.0468 | 0.34 | 0.65
8 | CO[C@@]1(NC(=O)Cc2cccs2)C(=O)N2C(C(=O)O)=C(COC(N)=O)CS[C@@H]21 [CEFOXITIN] | 0.79 | 0.81 | 0.216 | 0.17 | 0.73
9 | Cc1cccc(N2CC(CO)OC2=O)c1 (configuration not stated) [TOLOXATONE] | 2.3 | 1.6 | 0.66 | 1.5 | 0.49
10 | Nc1c2c(nc3ccccc13)CCCC2 [TACRINE] | 3.3 | 3.3 | 3.36 | 11 | 0.25
11 | CCOC(=O)C1(c2ccccc2)CCN(C)CC1 [MEPERIDINE] | 6.4 | 7.9 | 0.294 | 2.3 | 0.42
12 | CCCNC(C)C(=O)Nc1ccccc1C (configuration not stated) [PRILOCAINE] | 2.2 | 1.8 | 1.74 | 3.7 | 0.72
13 | COc1cc2c3cc1Oc1cc(ccc1O)C[C@@H]1c4c(cc(OC)c(O)c4Oc4ccc(cc4)C[C@@H]3N(C)CC2)CC[N+]1(C)C.[Cl-] | 2.2 | 2 | 0.204 | 0.45 | 0.58
14 | CO[C@@]1(NC(=O)C2SC(=C(C(N)=O)C(=O)O)S2)C(=O)N2C(C(=O)O)=C(CSc3nnnn3C)CS[C@@H]21 (some centres not stated) [CEFOTETAN] | 5.2 | 4.5 | 0.0252 |  | 0.15
15 | Nc1n[n+]([O-])c2ccccc2[n+]1[O-] [TIRAPAZAMINE] | 1 |  | 0.534 | 0.56 | 0.81
16 | CN1CCc2cccc3c2[C@H]1Cc1ccc(O)c(O)c1-3 [APOMORPHINE] |  |  | 2.4 | 1.6 | 0.057
17 | CCC[C@H](N[C@@H](C)C(=O)N1[C@H](C(=O)O)C[C@@H]2CCCC[C@@H]21)C(=O)O [PERINDOPRILAT] | 7.6 | 29 | 0.102 |  | 0.16
18 | NNC(=O)c1ccncc1 [ISONIAZID] | 1.8 |  | 0.444 | 0.82 | 1
19 | CN1CCCC(n2nc(Cc3ccc(Cl)cc3)c3ccccc3c2=O)CC1 (configuration not stated) [AZELASTINE] | 27 | 22 | 0.54 |  | 0.17
20 | Cc1onc(-c2c(F)cccc2Cl)c1C(=O)N[C@@H]1C(=O)N2[C@@H]1SC(C)(C)[C@@H]2C(=O)O [FLOXACILLIN] | 1.3 |  | 0.144 | 0.19 | 0.043
21 | CC(C)(O/N=C(\C(=O)N[C@@H]1C(=O)N2C(C(=O)[O-])=C(C[n+]3ccccc3)CS[C@H]12)c1csc(N)n1)C(=O)O [CEFTAZIDIME] | 2.2 |  | 0.144 | 0.31 | 0.79

Row | Compound | MRT (clinical [1]) [h] | half-life (clinical [2]) [h] | clearance (clinical [3]) [L/h/kg] | Vd (clinical [4]) [L/kg] | fraction unbound (clinical [5])
22 | COc1ccccc1Oc1c(NS(=O)(=O)c2ccc(C(C)C)cn2)nc(-c2ccnc(-c3nnn[nH]3)c2)nc1OCCO [TEZOSENTAN] |  | 3.8 | 0.486 | 0.28 | 0.0085
23 | CC/C=C\C/C=C\C/C=C\C/C=C\C/C=C\C/C=C/CCC(=O)O[C@@H](C(=O)O[C@H]1C[C@@]2(O)[C@@H](OC(=O)c3ccccc3)C3[C@](C)(C(=O)[C@H](OC(C)=O)C(=C1C)C2(C)C)[C@@H](O)C[C@H]1OC[C@@]31OC(C)=O)[C@@H](NC(=O)c1ccccc1)c1ccccc1 (some centres not stated) [DHA PACLITAXEL] | 45 | 60 | 0.0015 |  | 0.0038
24 | CCN(CC)CC#CCOC(=O)C(O)(c1ccccc1)C1CCCCC1 (configuration not stated) [OXYBUTYNIN] | 2.7 | 7.2 |  | 0.85 | 0.0034
25 | CC[C@H](OC(C)=O)C(C[C@H](C)N(C)C)(c1ccccc1)c1ccccc1 [LEVOMETHADYL ACETATE] | 26 |  | 0.324 | 8.3 | 0.2
26 | Cc1cccc(C)c1NC(=O)NCCCNC(C)C | 5.2 | 5 | 0.27 |  | 0.86
27 | C[C@H]1O[C@@H](O[C@H]2[C@@H](O)C[C@H](O[C@H]3[C@@H](O)C[C@H](O[C@H]4CC[C@@]5(C)[C@H](CC[C@@H]6[C@@H]5CC[C@]5(C)[C@@H](C7=CC(=O)OC7)CC[C@]65O)C4)O[C@@H]3C)O[C@@H]2C)C[C@H](O)[C@@H]1O [DIGITOXIN] | 170 |  | 0.00258 | 0.44 | 0.066
28 | CN[C@@H]1[C@@H](O)[C@@H](O[C@@H]2[C@@H](O)[C@H](O[C@H]3O[C@H](CN)[C@@H](O)[C@H](O)[C@H]3O)[C@@H](N)C[C@H]2NC(=O)[C@@H](O)CN)OC[C@]1(C)O [ISEPAMICIN] | 4.1 | 24 | 0.078 |  | 0.95
29 | COc1ccc2c3c1O[C@H]1[C@@H](O)C=C[C@H]4[C@@H](C2)N(C)CC[C@@]341 [CODEINE] | 3.9 | 4 | 0.9 |  | 0.7
30 | COc1ccc2c3c1O[C@H]1C(=O)CC[C@@]4(O)[C@@H](C2)N(C)CC[C@]314 [OXYCODONE] | 6.8 | 5.5 | 0.366 |  | 0.55
31 | COc1ccc(-c2nc3ccc(C4=NNC(=O)CC4C)cc3[nH]2)cc1 (configuration not stated) [PIMOBENDAN] | 2.2 | 1.8 |  | 2.04 | 0.024
32 | CC[C@H](C)C[C@H](C)CCCCCCCCC(=O)N[C@H]1C[C@@H](O)[C@@H](NCCN)NC(=O)[C@@H]2[C@@H](O)CCN2C(=O)[C@H]([C@H](O)CCN)NC(=O)[C@H]([C@H](O)[C@@H](O)c2ccc(O)cc2)NC(=O)[C@@H]2C[C@@H](O)CN2C(=O)[C@H]([C@@H](C)O)NC1=O [CASPOFUNGIN] | 15 |  | 0.0084 | 0.13 | 0.035
33 | CC(=O)O[C@H]1C[C@@H]2CC[C@@H]3[C@H](CC[C@@]4(C)[C@H]3C[C@H]([N+]3(C)CCCCC3)[C@@H]4OC(C)=O)[C@@]2(C)C[C@@H]1[N+]1(C)CCCCC1 [PANCURONIUM] | 2.2 | 1.9 |  | 0.2 | 0.09
34 | CC(=O)Nc1c(I)c(NC(C)=O)c(I)c(C(=O)O)c1I [DIATRIZOIC ACID] | 2.6 |  | 0.102 |  | 1
35 | N[C@@H](Cc1ccc(N(CCCl)CCCl)cc1)C(=O)O | 1.1 |  | 0.42 | 0.48 | 0.14
36 | CC#CCC(C)[C@H](O)/C=C/[C@@H]1[C@H]2C/C(=C/CCCC(=O)O)C[C@H]2C[C@H]1O (some centres not stated) [ILOPROST] |  | 0.57 | 0.96 | 0.37 | 0.4
37 | C[C@@H](c1ncncc1F)[C@](O)(Cn1cncn1)c1ccc(F)cc1F [VORICONAZOLE] | 4.4 | 5.6 |  | 2.2 | 0.42
38 | O=C1CN(/N=C/c2ccc([N+](=O)[O-])o2)C(=O)N1 [NITROFURANTOIN] | 0.98 | 0.97 |  | 0.57 | 0.17
39 | CCOc1ccc(NC(C)=O)cc1 [PHENACETIN] | 1.1 | 0.92 |  | 1.4 | 0.47
40 | CCc1cccc2cc(C(O)CNC(C)(C)C)oc12 (configuration not stated) [BUFURALOL] | 3.18 | 2.3 | 0.534 |  | 0.19
41 | CCCCC(=O)N(Cc1ccc(-c2ccccc2-c2nnn[nH]2)cc1)[C@H](C(=O)O)C(C)C | 7.5 | 9.5 | 0.0294 |  | 0.04
42 | CCCCCCCCCCNCCN[C@@]1(C)C[C@H](O[C@H]2[C@H](Oc3c4cc5cc3Oc3ccc(cc3Cl)[C@@H](O)[C@@H](NC(=O)[C@@H](CC(C)C)NC)C(=O)N[C@@H](CC(N)=O)C(=O)N[C@H]5C(=O)N[C@H]3C(=O)N[C@H](C(=O)N[C@H](C(=O)O)c5cc(O)c(CNCP(=O)(O)O)c(O)c5-c5cc3ccc5O)[C@H](O)c3ccc(c(Cl)c3)O4)O[C@H](CO)[C@@H](O)[C@@H]2O)O[C@@H](C)[C@H]1O [TELAVANCIN] | 9.2 | 6.7 | 0.012 |  | 0.07
